Test results from US10293053B2, “Silanol based therapeutic payloads” (BlinkBio, Inc., priority 2016, dated 2019).
Like-named read-outs stand apart in the source and are kept apart here. Where a SMILES comes first, the peptide text is derived from it. [ ]: non-standard residue; d: D form. The star is where a group is joined. Dolaproine = CO[C@@H]([C@@H]1CCCN1)[C@@H](C)C(=O)O; Dil = CC[C@H](C)[C@H](NC)[C@@H](CC(=O)O)OC; NMe2Val = CC(C)[C@@H](C(=O)*)N(C)C; NMeV = CN[C@H](C(=O)O)C(C)C; X3 = C[Si](C)(O)CCCC(=O)*; X2 = C[Si](C)(O)CCCN*

Tests used:
KB cells [1] = assay: CellTiter-Glo cell viability, 72 hour incubation protocol; assay type: cell-based; conditions: Homo sapiens
Procedure: 72 hour incubation protocol: The CellTiter-Glo (CTG) assay (Promega) was used to measure cell viability in various different cell lines included KB cells obtained from American Type Culture Collection (ATCC). […] For this assay, 5,000 cells per well were plated in a 96-well tissue culture treated plate in RPMI 1640 medium (ThermoFisher Scientific) containing 5% FBS. Cells were allowed to settle at 37° C. in a humidified CO2 incubator for 24 hours. Cells were dosed with compound or vehicle control in duplicate for 72 hours at 37° C. in a humidified CO2 incubator. After the 72 hour dosing period, the CTG assay was performed according to the manufacturer's specifications. Luminescence was read using a Victor X5 (PerkinElmer) plate reader. Data was analyzed using Prism software and was normalized to the vehicle control.

KB cells [2] = assay: Cell titer-glo cell viability, washout protocol; assay type: cell-based; conditions: percent cell kill at 48 h
Procedure: Washout protocol: KB cells in culture were seeded in white clear bottom 96-well tissue culture plate at a density of 5,000 cells per well in a folate free RPMI media with 10% FBS a day prior to compound addition. Cells were counted visually with a hemocytometer and diluted accordingly to obtain the desired density. Cells were allowed to incubate for 24 hours in a humidified CO2 atmosphere in an incubator at 37° C. The spent media was aspirated and replenished with 100 μL of fresh media containing a 3-fold serial dilution of compound with concentrations ranging from 0.3 to 2000 nM and with a final DMSO concentration of 0.1%. Blank wells without compound were also treated with media containing 0.1% DMSO. Cells were incubated for 2 h and washed 4 times with fresh media. […] […] 100 μL of constituted Cell titer-glo reagent was added to each well and luminescence was recorded with a VICTOR plate reader according to manufacturers' protocol.

[3] = 72 h incubation protocol, silanol based payloads, read-out: EC50

SMILES | % Kill (48 h) (KB cells [2]) [%] | EC50 (KB cells [1]; 72 h) [nM] | further results
CC[C@@]1(O)C(=O)OCc2c1cc1n(c2=O)Cc2c-1nc1ccccc1c2CC[Si](C)(C)O [Example 7, (S)-4-Ethyl-4-hydroxy-11-(2-(hydroxydimethylsilyl)ethyl)-1,12-dihydro-14H-pyrano[3′,4′:6,7]indolizino[1,2-b]quinoline-3,14(4H)-dione] |  |  | EC50 (KB cells [1]; [3]): ~56 nM
CC[C@]1(O)CC2CN(CCc3c([nH]c4ccccc34)[C@@](C(=O)OC)(c3cc4c(cc3OC)N(C)[C@H]3[C@@](O)(C(=O)NCCC[Si](C)(C)O[Si](C)(C)CSc5ncc(COCCOCCOCCn6cc(COCC(COCc7cn(CCOCCOCCOCc8cnc(SC[Si](C)(C)O[Si](C)(C)CCCNC(=O)[C@@]9(O)[C@H](O)[C@]%10(CC)C=CCN%11CC[C@@]%12(c%13cc([C@@]%14(C(=O)OC)CC%15CN(CCc%16c%14[nH]c%14ccccc%16%14)C[C@](O)(CC)C%15)c(OC)cc%13N(C)[C@@H]9%12)[C@@H]%11%10)nc8)nn7)(COCc7cn(CCOCCOCCOCc8cnc(SC[Si](C)(C)O[Si](C)(C)CCCNC(=O)[C@@]9(O)[C@H](O)[C@]%10(CC)C=CCN%11CC[C@@]%12(c%13cc([C@@]%14(C(=O)OC)CC%15CN(CCc%16c%14[nH]c%14ccccc%16%14)C[C@](O)(CC)C%15)c(OC)cc%13N(C)[C@@H]9%12)[C@@H]%11%10)nc8)nn7)NC(=O)CCOCCOCCOCCOCCOCCOCCNC(=O)CC[C@H](NC(=O)c7ccc(NCc8cnc9nc(N)[nH]c(=O)c9n8)cc7)C(=O)O)nn6)cn5)[C@H](O)[C@]5(CC)C=CCN6CC[C@]43[C@@H]65)C2)C1 (some centres unmarked) [Example 27] | 80 |  | 
CC[C@]1(O)C[C@@H]2CN(CCc3c([nH]c4ccccc34)[C@@](C(=O)OC)(c3cc4c(cc3OC)N(C)[C@H]3[C@@](O)(C(=O)NCCC[Si](C)(C)O[Si](C)(C)CSc5ncc(Cn6cc(COCCOCCOCCOCCOCCOCCNC(=O)CC[C@H](NC(=O)c7ccc(NCc8cnc9nc(N)[nH]c(=O)c9n8)cc7)C(=O)O)nn6)cn5)[C@H](O)[C@]5(CC)C=CCN6CC[C@]43[C@@H]65)C2)C1 [Example 24] | 84 |  | 
CC[C@H](C)[C@@H]([C@@H](CC(=O)N1CCC[C@H]1[C@H](OC)[C@@H](C)C(=O)N[C@@H](Cc1ccccc1)C(=O)NCCC[Si](C)(C)O)OC)N(C)C(=O)[C@@H](NC(=O)[C@H](C(C)C)N(C)C)C(C)C [Example 5, (S)—N-((3R,4S,5S)-1-((S)-2-((3R,4R,7S)-7-benzyl-13-hydroxy-4,13-dimethyl-5,8-dioxo-2-oxa-6,9-diaza-13-silatetradecan-3-yl)pyrrolidin-1-yl)-3-methoxy-5-methyl-1-oxoheptan-4-yl)-2-((S)-2-(dimethylamino)-3-methylbutanamido)-N,3-dimethylbutanamide] (NMe2Val-V[Dil][Dolaproine]F-X2) |  | ~0.5 | 
CCCC(=O)OCN(C(=O)[C@@H](NC(=O)[C@H]1CCCCN1C)[C@@H](C)CC)[C@H](C[C@@H](OC(C)=O)c1nc(C(=O)N[C@@H](Cc2ccc(O)cc2)C[C@H](C)C(=O)NCCC[Si](C)(C)O)cs1)C(C)C (stereo in doubt) [Example 13] |  | < 0.1 | 
CC[C@H](C)[C@@H]([C@@H](CC(=O)N1CCC[C@H]1[C@H](OC)[C@@H](C)C(=O)N[C@@H](Cc1ccccc1)C(=O)O)OC)N(C)C(=O)[C@@H](NC(=O)[C@H](C(C)C)N(C)C(=O)CCC[Si](C)(C)O)C(C)C [Example 6, ((2R,3R)-3-((S)-1-((3R,4S,5S)-4-((S)-2-((S)-2-(4-(hydroxydimethylsilyl)-N-methylbutanamido)-3-methylbutanamido)-N,3-dimethylbutanamido)-3-methoxy-5-methylheptanoyl)pyrrolidin-2-yl)-3-methoxy-2-methylpropanoyl)-L-phenylalanine] (X3-[NMeV]V[Dil][Dolaproine]F-OH) |  | ~500 | 
CC[C@]1(O)C[C@@H]2CN(CCc3c([nH]c4ccccc34)[C@@](C(=O)OC)(c3cc4c(cc3OC)N(C)[C@H]3[C@@](O)(C(=O)NCCC[Si](C)(C)O[Si](C)(C)CSc5ncc(Cn6cc(C[C@H](NC(=O)[C@H](CC(=O)O)NC(=O)[C@H](CC(=O)O)NC(=O)[C@H](CCCNC(=N)N)NC(=O)[C@H](CC(=O)O)NC(=O)CC[C@H](NC(=O)c7ccc(NCc8cnc9nc(N)[nH]c(=O)c9n8)cc7)C(=O)O)C(=O)O)nn6)cn5)[C@H](O)[C@]5(CC)C=CCN6CC[C@]43[C@@H]65)C2)C1 [Example 28] | 86 |  | 
CC[C@]1(O)C[C@H]2CN(CCc3c([nH]c4ccccc34)[C@@](C(=O)OC)(c3cc4c(cc3OC)N(C)[C@H]3[C@@](O)(C(=O)NCCC[Si](C)(C)O)[C@H](O)[C@]5(CC)C=CCN6CC[C@]43[C@@H]65)C2)C1 (stereo in doubt) [Example 1, Methyl (3R,5S,7R,9S)-5-ethyl-9-((3aR,3a1R,4R,5S,5aR,10bR)-3a-ethyl-4,5-dihydroxy-5-((3-(hydroxydimethylsilyl)propyl)carbamoyl)-8-methoxy-6-methyl-3a,3a1,4,5,5a,6,11,12-octahydro-1H-indolizino[8,1-cd]carbazol-9-yl)-5-hydroxy-1,4,5,6,7,8,9,10-octahydro-2H-3,7-methano[1]azacycloundecino[5,4-b]indole-9-carboxylate] |  |  | EC50 (KB cells [1]; [3]): ~6 nM
